Among the data in patent US5604234A, “Substituted thiol macrolactam immunomodulators” (Abbott Laboratories, priority 1995, dated 1997) are IC50 values, retold here.

The test relates to human mixed lymphocyte reaction (MLR). Briefly: human mixed lymphocyte reaction (MLR), serum free variation. The format is cell-based. The settings on record: Lymphocyte, serum-free medium AIM V, Table 3. In a few lines: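 Serum-free variant of the human MLR: cultured in AIM V medium in place of RPMI 1640 with 10% heat-inactivated FBS. Responder and stimulator PBMCs, pooled from four donors, at final 5×10^5/mL and 2×10^6/mL respectively.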

Each structure is given as a SMILES string.

For `CCNC(=O)S[C@H]1CC[C@@H](/C=C(\C)[C@H]2OC(=O)[C@@H]3CCCCN3C(=O)C(=O)[C@]3(O)O[C@H]([C@@H](OC)C[C@@H](C)C/C(C)=C/[C@@H](CC)C(=O)C[C@H](O)[C@H]2C)[C@@H](OC)C[C@H]3C)C[C@H]1OC` [Example 91], the IC50 (Homo sapiens) came to 0.09 nM. This lies in the picomolar range.

In turn, `CCCNC(=O)S[C@H]1CC[C@@H](/C=C(\C)[C@H]2OC(=O)[C@@H]3CCCCN3C(=O)C(=O)[C@]3(O)O[C@H]([C@@H](OC)C[C@@H](C)C/C(C)=C/[C@@H](CC)C(=O)C[C@H](O)[C@H]2C)[C@@H](OC)C[C@H]3C)C[C@H]1OC` [Example 92] came in with an IC50 (Homo sapiens) of 0.26 nM.

Take `CC[C@@H]1/C=C(\C)C[C@H](C)C[C@H](OC)[C@H]2O[C@@](O)(C(=O)C(=O)N3CCCC[C@H]3C(=O)O[C@H](/C(C)=C/[C@@H]3CC[C@H](SC(=O)NC(C)C)[C@H](OC)C3)[C@H](C)[C@@H](O)CC1=O)[C@H](C)C[C@@H]2OC` [Example 93]: for the setting “Homo sapiens”, the IC50 is 0.3 nM. The IC50 values of the last two molecules are within 1.5-fold of each other.

On to `CC[C@@H]1/C=C(\C)C[C@H](C)C[C@H](OC)[C@H]2O[C@@](O)(C(=O)C(=O)N3CCCC[C@H]3C(=O)O[C@H](/C(C)=C/[C@@H]3CC[C@H](SC(=O)Nc4ccccc4)[C@H](OC)C3)[C@H](C)[C@@H](O)CC1=O)[C@H](C)C[C@@H]2OC` [Example 94], for which the midpoint of inhibition (Homo sapiens), the IC50, lay at 1.9 nM.

`CCOC(=O)CNC(=O)S[C@H]1CC[C@@H](/C=C(\C)[C@H]2OC(=O)[C@@H]3CCCCN3C(=O)C(=O)[C@]3(O)O[C@H]([C@@H](OC)C[C@@H](C)C/C(C)=C/[C@@H](CC)C(=O)C[C@H](O)[C@H]2C)[C@@H](OC)C[C@H]3C)C[C@H]1OC` [Example 95] yielded an IC50 (Homo sapiens) of 10.9 nM.

For the molecule `CC[C@@H]1/C=C(\C)C[C@H](C)C[C@H](OC)[C@H]2O[C@@](O)(C(=O)C(=O)N3CCCC[C@H]3C(=O)O[C@H](/C(C)=C/[C@@H]3CC[C@H](SC(=O)N(C)C)[C@H](OC)C3)[C@H](C)[C@@H](O)CC1=O)[C@H](C)C[C@@H]2OC` [Example 96], it took 0.1 nM to reach half-maximal inhibition (Homo sapiens) (IC50).

`CC[C@@H]1/C=C(\C)C[C@H](C)C[C@H](OC)[C@H]2O[C@@](O)(C(=O)C(=O)N3CCCC[C@H]3C(=O)O[C@H](/C(C)=C/[C@@H]3CC[C@H](SC(=O)N(CC)CC)[C@H](OC)C3)[C@H](C)[C@@H](O)CC1=O)[C@H](C)C[C@@H]2OC` [Example 97] registered an IC50 (Homo sapiens) of 0.5 nM.

Under “Homo sapiens”, `CC[C@@H]1/C=C(\C)C[C@H](C)C[C@H](OC)[C@H]2O[C@@](O)(C(=O)C(=O)N3CCCC[C@H]3C(=O)O[C@H](/C(C)=C/[C@@H]3CC[C@H](SC(=O)N4CCOCC4)[C@H](OC)C3)[C@H](C)[C@@H](O)CC1=O)[C@H](C)C[C@@H]2OC` [Example 98] showed an IC50 of 0.2 nM. This IC50 lies about 2.5-fold lower than the previous one.

For the setting “Homo sapiens”, `CC[C@@H]1/C=C(\C)C[C@H](C)C[C@H](OC)[C@H]2O[C@@](O)(C(=O)C(=O)N3CCCC[C@H]3C(=O)O[C@H](/C(C)=C/[C@@H]3CC[C@H](SC(=O)NCC(=O)OCc4ccc(OC)cc4)[C@H](OC)C3)[C@H](C)[C@@H](O)CC1=O)[C@H](C)C[C@@H]2OC` [Example 99] yielded an IC50 of 8.7 nM.

`CC[C@@H]1/C=C(\C)C[C@H](C)C[C@H](OC)[C@H]2O[C@@](O)(C(=O)C(=O)N3CCCC[C@H]3C(=O)O[C@H](/C(C)=C/[C@@H]3CC[C@H](SC(=O)NCC(=O)OCC[Si](C)(C)C)[C@H](OC)C3)[C@H](C)[C@@H](O)CC1=O)[C@H](C)C[C@@H]2OC` [Example 100] displayed an IC50 of 5.8 nM.

As for `CC[C@@H]1/C=C(\C)C[C@H](C)C[C@H](OC)[C@H]2O[C@@](O)(C(=O)C(=O)N3CCCC[C@H]3C(=O)O[C@H](/C(C)=C/[C@@H]3CC[C@H](SC(=O)NCC(=O)N4CCOCC4)[C@H](OC)C3)[C@H](C)[C@@H](O)CC1=O)[C@H](C)C[C@@H]2OC` [Example 101], half-maximal inhibition (Homo sapiens) (IC50) was put at 1.1 nM.

`CC[C@@H]1/C=C(\C)C[C@H](C)C[C@H](OC)[C@H]2O[C@@](O)(C(=O)C(=O)N3CCCC[C@H]3C(=O)O[C@H](/C(C)=C/[C@@H]3CC[C@H](SC(=O)NCC(=O)N4CCCCC4)[C@H](OC)C3)[C@H](C)[C@@H](O)CC1=O)[C@H](C)C[C@@H]2OC` [Example 102]: it took 2 nM to reach half-maximal inhibition (Homo sapiens) (IC50). Against the preceding molecule, the IC50 is about 1.8-fold higher.

For `CCOC(CNC(=O)S[C@H]1CC[C@@H](/C=C(\C)[C@H]2OC(=O)[C@@H]3CCCCN3C(=O)C(=O)[C@]3(O)O[C@H]([C@@H](OC)C[C@@H](C)C/C(C)=C/[C@@H](CC)C(=O)C[C@H](O)[C@H]2C)[C@@H](OC)C[C@H]3C)C[C@H]1OC)OCC` [Example 104], where the note is “Homo sapiens”, the midpoint of inhibition, the IC50, lay at 2.5 nM.

As for `CC[C@@H]1/C=C(\C)C[C@H](C)C[C@H](OC)[C@H]2O[C@@](O)(C(=O)C(=O)N3CCCC[C@H]3C(=O)O[C@H](/C(C)=C/[C@@H]3CC[C@H](SC(=O)C(=O)OC)[C@H](OC)C3)[C@H](C)[C@@H](O)CC1=O)[C@H](C)C[C@@H]2OC` [Example 111], the IC50 (Homo sapiens) turned out to be 4.1 nM.

On to `CC[C@@H]1/C=C(\C)C[C@H](C)C[C@H](OC)[C@H]2O[C@@](O)(C(=O)C(=O)N3CCCC[C@H]3C(=O)O[C@H](/C(C)=C/[C@@H]3CC[C@H](SC(=O)c4ccccc4OC(C)=O)[C@H](OC)C3)[C@H](C)[C@@H](O)CC1=O)[C@H](C)C[C@@H]2OC` [Example 112], for which the IC50 (Homo sapiens) turned out to be 0.49 nM.

Take `CC[C@@H]1/C=C(\C)C[C@H](C)C[C@H](OC)[C@H]2O[C@@](O)(C(=O)C(=O)N3CCCC[C@H]3C(=O)O[C@H](/C(C)=C/[C@@H]3CC[C@H](SC(=O)c4cccnc4)[C@H](OC)C3)[C@H](C)[C@@H](O)CC1=O)[C@H](C)C[C@@H]2OC` [Example 113]: for the setting “Homo sapiens”, the IC50 was 0.15 nM.

In the case of `CC[C@@H]1/C=C(\C)C[C@H](C)C[C@H](OC)[C@H]2O[C@@](O)(C(=O)C(=O)N3CCCC[C@H]3C(=O)O[C@H](/C(C)=C/[C@@H]3CC[C@H](SC(=O)c4ccncc4)[C@H](OC)C3)[C@H](C)[C@@H](O)CC1=O)[C@H](C)C[C@@H]2OC` [Example 114], half-maximal inhibition (Homo sapiens) (IC50) required 0.14 nM.

For the setting “Homo sapiens”, `CC[C@@H]1/C=C(\C)C[C@H](C)C[C@H](OC)[C@H]2O[C@@](O)(C(=O)C(=O)N3CCCC[C@H]3C(=O)O[C@H](/C(C)=C/[C@@H]3CC[C@H](SC(=O)CNC(C)=O)[C@H](OC)C3)[C@H](C)[C@@H](O)CC1=O)[C@H](C)C[C@@H]2OC` [Example 115] displayed an IC50 of 0.02 nM.

`CC[C@@H]1/C=C(\C)C[C@H](C)C[C@H](OC)[C@H]2O[C@@](O)(C(=O)C(=O)N3CCCC[C@H]3C(=O)O[C@H](/C(C)=C/[C@@H]3CC[C@H](SC(=O)CCNC(C)=O)[C@H](OC)C3)[C@H](C)[C@@H](O)CC1=O)[C@H](C)C[C@@H]2OC` [Example 116] yielded an IC50 (Homo sapiens) of 3.1 nM.

In turn, `CC[C@@H]1/C=C(\C)C[C@H](C)C[C@H](OC)[C@H]2O[C@@](O)(C(=O)C(=O)N3CCCC[C@H]3C(=O)O[C@H](/C(C)=C/[C@@H]3CC[C@H](SC(=O)c4ccccc4NC(C)=O)[C@H](OC)C3)[C@H](C)[C@@H](O)CC1=O)[C@H](C)C[C@@H]2OC` [Example 118] came in with an IC50 (Homo sapiens) of 2.5 nM.

`CC[C@@H]1/C=C(\C)C[C@H](C)C[C@H](OC)[C@H]2O[C@@](O)(C(=O)C(=O)N3CCCC[C@H]3C(=O)O[C@H](/C(C)=C/[C@@H]3CC[C@H](SC(=O)c4ccccc4C#N)[C@H](OC)C3)[C@H](C)[C@@H](O)CC1=O)[C@H](C)C[C@@H]2OC` [Example 119] displayed an IC50 (Homo sapiens) of 3 nM. This IC50 and that of the molecule before are within 1.5-fold of each other.

`CC[C@@H]1/C=C(\C)C[C@H](C)C[C@H](OC)[C@H]2O[C@@](O)(C(=O)C(=O)N3CCCC[C@H]3C(=O)O[C@H](/C(C)=C/[C@@H]3CC[C@H](SC(=O)c4ccccn4)[C@H](OC)C3)[C@H](C)[C@@H](O)CC1=O)[C@H](C)C[C@@H]2OC` [Example 120] returned an IC50 (Homo sapiens) of 1.2 nM.

One may read the IC50 as the concentration that inhibits the measured activity by half.
